Details: for log10 BCF / log10 biotransformation half-life (days): fish

SMILES	boiling point	melting point	also measured
CCCOCC(C)O (configuration not stated)	150 °C	-80 °C	log10 vapour pressure (mmHg): 0.23
CCCC/C=C/CCCCC	192 °C	-83.8 °C	–
Cc1cc(Cl)cc2c1SC(=C1Sc3c(C)cc(Cl)cc3C1=O)C2=O	–	–	log10 vapour pressure (mmHg): -9.52
CCCN(CCC)C(C)=O	210 °C	–	–
O=[N+]([O-])c1ccc(O)c2ncccc12	–	180 °C	–
CCCCCCCOCC	166 °C	-68.3 °C	–
O=C1NN(c2ccccc2)C(=O)C1c1ccccc1 (configuration not stated)	–	234 °C	–
CCCCS	98.5 °C	-116 °C	log10 Henry constant (atm·m³/mol): -2.34; log10 vapour pressure (mmHg): 1.66
OC(c1ccc(Cl)cc1)c1cc2ccccc2o1 (configuration not stated)	–	48.5 °C	–
Clc1cccc(Nc2ccccc2)c1	338 °C	–	–
CCCCCCC(=O)CCCCC	–	10 °C	–
CCOC(=O)N(C)N=O	–	–	log10 vapour pressure (mmHg): 0.0719
CN(C)C1CCCCC1	160 °C	–	log10 Henry constant (atm·m³/mol): -4.63
O=C(Cn1ccnc1[N+](=O)[O-])NCc1ccccc1	–	189 °C	–
C=CC(=O)OCCOCC	174 °C	-47 °C	–
O=C(O)[C@H]1CCCC[C@H]1C(=O)OC(=O)[C@H]1CCCC[C@H]1C(=O)O	–	–	ready biodegradability: not readily biodegradable
CCC(CC)(CC)C(C)C	172 °C	–	–
C=C[Si](C)(C)O[Si](C)(C)C=C	39 °C	-99.7 °C	–
Clc1cc(Cl)nc(-c2ccccc2)n1	–	96.9 °C	log10 vapour pressure (mmHg): -4.05
C1=CCNCC1	108 °C	-48 °C	–
Nc1ccccc1Oc1ccccc1	308 °C	45.8 °C	–
ClC(Cl)(Cl)Cl	76.8 °C	-23 °C	log10 Henry constant (atm·m³/mol): -1.56; log10 Koa: 2.79; log10 Koc (L/kg): 1.85; log10 vapour pressure (mmHg): 2.06; ready biodegradability: not readily biodegradable; log10 BCF: 0.87; log10 biotransformation half-life (days): -1.19

SMILES	boiling point	melting point	also measured
Cc1ccc(C)c(O)c1	211 °C	74.8 °C	log10 Henry constant (atm·m³/mol): -5.95; log10 vapour pressure (mmHg): -0.807; ready biodegradability: not readily biodegradable
CC(=O)C1CC=C(C)CC1 (configuration not stated)	171 °C	–	–
C=C(C)CN(CC)c1c([N+](=O)[O-])cc(C(F)(F)F)cc1[N+](=O)[O-]	–	55.5 °C	log10 Koc (L/kg): 3.6; log10 vapour pressure (mmHg): -4.06
O=C(NC(=O)c1c(F)cccc1F)Nc1cc(Cl)c(OC(F)(F)C(F)F)c(Cl)c1	–	204 °C	–
Nc1ccc2c(S(=O)(=O)O)cccc2c1S(=O)(=O)O	–	–	ready biodegradability: not readily biodegradable
NCCCCCCCN	224 °C	28.9 °C	–
COC(=O)CCCC(=O)OC	214 °C	-42.5 °C	log10 vapour pressure (mmHg): -0.745; ready biodegradability: readily biodegradable
FC(F)=C(F)OC(F)(F)C(F)(F)C(F)(F)F	–	–	ready biodegradability: not readily biodegradable
CCC1OCC(COc2ccc(Oc3ccccc3)cc2)O1 (configuration not stated)	–	–	log10 vapour pressure (mmHg): -6.08
Nc1ccc(S(=O)(=O)c2ccc(N)cc2)cc1	–	176 °C	–
CC(C)OC(N)=O	183 °C	93 °C	–
Cc1cccc(N=Nc2ccc(N(C)C)cc2)c1	–	138 °C	–
Cc1ccc(C(C)c2ccc(C)cc2)cc1	298 °C	–	–
C=C(C)C1CC1	70 °C	–	–
C#CC(O)(C=CCl)CC (configuration not stated)	174 °C	–	log10 vapour pressure (mmHg): -1
CC(C)(Br)Br	115 °C	–	–
CCCCCF	62.8 °C	-120 °C	log10 vapour pressure (mmHg): 2.27
CC(C)(OOC(C)(C)c1ccccc1)c1ccccc1	396 °C	–	ready biodegradability: not readily biodegradable; log10 BCF: 2.62; log10 biotransformation half-life (days): -0.01
O=C(O)CSc1ncccn1	–	–	ready biodegradability: readily biodegradable
BrC(c1ccccc1)(c1ccccc1)c1ccccc1	–	153 °C	–
C1CSC1	95 °C	-73.2 °C	log10 vapour pressure (mmHg): 1.72
Cc1nnc(C)s1	202 °C	65 °C	–

SMILES	boiling point	melting point	also measured
CC(C)OC(=O)c1ccccc1	216 °C	–	–
CCOC(CC)OCC	123 °C	–	–
C#C[C@]1(O)CC[C@H]2[C@@H]3CCc4cc(O)ccc4[C@H]3[C@@H](OC)C[C@@]21C	–	280 °C	–
COC(=O)CCC(=O)O	–	58 °C	–
N=C(N)NC(N)=O	–	105 °C	–
CC(C)OC(=O)C=CC(=O)OC(C)C	280 °C	2.1 °C	–
CCCCC1(CC)C(=O)NC(=O)NC1=O	–	128 °C	–
CC(=O)N=c1sc(S(N)(=O)=O)nn1C	–	214 °C	–
C=C(C)C(C)CC (configuration not stated)	84.3 °C	-134 °C	log10 vapour pressure (mmHg): 1.91
C=CC(=O)N(C)C	–	–	ready biodegradability: not readily biodegradable
C=CC(=O)OCCCCCC	–	-45 °C	ready biodegradability: readily biodegradable
NS(=O)(=O)c1ccc(SCCCO)cc1	–	117 °C	–
O=Cc1ccccc1C(=O)O	–	98 °C	–
C=Cc1ccc(O)cc1	–	73.5 °C	log10 vapour pressure (mmHg): -1.85
CNc1ccc(N)c2c1C(=O)c1ccccc1C2=O	–	193 °C	–
CC(C)[C@H]1CC[C@]2(C)C[C@H](O)[C@]3(C)CC[C@]12O3	–	114 °C	–
CCOC(=O)C(C#N)(CC)CC	214 °C	–	–
CC1CCC(C)CC1 (configuration not stated)	120 °C	-87 °C	log10 vapour pressure (mmHg): 1.25
O=c1oc2ccccc2c(O)c1C1CC(c2ccc(OCc3ccc(C(F)(F)F)cc3)cc2)Cc2ccccc21 (configuration not stated)	–	167 °C	–
C=CC(O)C=C	116 °C	–	–

Reference: the OPERA property sets (Mansouri et al. 2018)
